Source: publication PMC12655426 (Pharmaceutics, 2025)
Like-named read-outs stand apart in the source and are kept apart here.

How the values were obtained:
Assay type in all cases: cell-based
human BCRP = molecular target: T1, human BCRP (Homo sapiens, UniProt Q9UNQ0); experiment: Polyphenol modulation of BCRP-mediated OTA efflux in MDCK-II cells; set-up: host or cells: MDCK-II, transient plasmid transfection
T1 sequence (Q9UNQ0 1-655): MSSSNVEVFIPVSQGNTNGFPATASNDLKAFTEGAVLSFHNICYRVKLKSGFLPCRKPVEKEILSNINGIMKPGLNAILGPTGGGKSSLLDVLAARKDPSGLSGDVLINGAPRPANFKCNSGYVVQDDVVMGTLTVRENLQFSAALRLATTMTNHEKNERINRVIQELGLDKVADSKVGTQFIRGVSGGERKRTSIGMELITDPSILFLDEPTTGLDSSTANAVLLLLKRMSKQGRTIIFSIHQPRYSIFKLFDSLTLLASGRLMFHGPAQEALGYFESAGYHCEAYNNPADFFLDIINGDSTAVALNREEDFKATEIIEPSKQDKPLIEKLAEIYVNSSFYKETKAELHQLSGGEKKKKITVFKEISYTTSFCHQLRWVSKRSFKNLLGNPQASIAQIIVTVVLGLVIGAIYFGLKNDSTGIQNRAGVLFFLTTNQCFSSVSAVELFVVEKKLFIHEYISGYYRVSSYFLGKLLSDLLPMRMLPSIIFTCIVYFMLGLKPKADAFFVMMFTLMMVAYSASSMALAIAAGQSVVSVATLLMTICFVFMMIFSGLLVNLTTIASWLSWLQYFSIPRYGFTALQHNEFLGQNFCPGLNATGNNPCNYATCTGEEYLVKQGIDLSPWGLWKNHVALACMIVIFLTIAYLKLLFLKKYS
Protocol: The concentrations of polyphenols tested were as follows: ECG and miquelianin: 100, 200, 400, 600, 800, 1000 μM; caffeic acid: 50, 100, 500, 1000, 5000, 10,000 μM; luteolin: 0.1, 1, 10, 20, 25, 40, 50, 60, 100, 150 μM; myricetin: 5, 10, 50, 100, 250, 500, 650, 750, 850, 1000 μM. All other assay conditions were as described above. Transport activity was expressed as percent of vehicle control and fitted to a four-parameter logistic model to obtain half-maximal inhibitory concentration (IC50) values (for inhibition) or half-maximal effective concentration (EC50) values (for activation). Three independent experiments, each with technical triplicate, were performed for every compound.
(§1) A p-value < 0.05 was considered statistically significant. For the estimation of IC50 or EC50 values, transport activity data were fitted with the following four-parameter logistic models: V=Bottom+Top−Bottom/1+I/IC50^h for inhibitors V=Bottom+[I]^h×(Top−Bottom)/[I]^h+EC50^h for activators where V is transport activity expressed as a percentage of vehicle control, [I] is inhibitor (or activator) concentration, Top and Bottom are the asymptotic plateaus, IC50 or EC50 is the concentration producing half-maximal inhibition (or activation), and h is the Hill slope. All data analyses were performed using GraphPad Prism version 10.2.3 (GraphPad). Parameter estimates are reported as best-fit ± standard error from three independent experiments, each run in technical triplicate.

OAT3 = molecular target: T2, OAT3 (Homo sapiens, UniProt Q8TCC7); experiment: Polyphenol inhibition of OAT3-mediated OTA uptake in HEK293 cells; set-up: host or cells: HEK293, stably transfected; conditions: for OTA uptake, fraction of vehicle control: polyphenol 10 μM, 300 nM OTA, 5 min
T2 sequence (Q8TCC7 1-542): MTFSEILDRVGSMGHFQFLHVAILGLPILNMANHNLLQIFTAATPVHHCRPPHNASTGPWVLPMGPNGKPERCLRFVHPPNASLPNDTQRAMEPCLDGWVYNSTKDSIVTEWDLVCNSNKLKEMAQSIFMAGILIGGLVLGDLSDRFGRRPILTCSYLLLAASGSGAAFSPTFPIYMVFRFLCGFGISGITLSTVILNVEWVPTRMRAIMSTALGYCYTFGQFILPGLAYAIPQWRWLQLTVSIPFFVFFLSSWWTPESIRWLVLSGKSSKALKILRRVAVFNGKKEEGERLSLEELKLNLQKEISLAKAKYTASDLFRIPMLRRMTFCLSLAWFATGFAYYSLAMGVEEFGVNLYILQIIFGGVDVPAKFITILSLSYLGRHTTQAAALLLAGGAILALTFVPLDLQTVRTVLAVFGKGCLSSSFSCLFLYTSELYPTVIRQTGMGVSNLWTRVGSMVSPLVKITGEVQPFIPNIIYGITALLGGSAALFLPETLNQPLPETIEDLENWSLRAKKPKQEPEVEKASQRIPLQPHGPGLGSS
Protocol: (§2) Because OATP1A2 is expressed at exceptionally low levels in the apical membrane of the kidney as well as in the liver and intestine, interaction studies focused on OAT1, OAT3, OAT4, and BCRP as these will have a greater impact on circulating polyphenol levels. […] Uptake assays were performed in three independent experiments, each in technical triplicate.
as §1

human OAT1 = molecular target: T3, human OAT1 (Homo sapiens, UniProt Q4U2R8); experiment: Polyphenol inhibition of OAT1-mediated OTA uptake in HEK293 cells; conditions: for OTA uptake, fraction of vehicle control: polyphenol 10 μM, 300 nM OTA, 5 min
T3 construct: host or cells: HEK293, stably transfected
T3 sequence (Q4U2R8 1-563): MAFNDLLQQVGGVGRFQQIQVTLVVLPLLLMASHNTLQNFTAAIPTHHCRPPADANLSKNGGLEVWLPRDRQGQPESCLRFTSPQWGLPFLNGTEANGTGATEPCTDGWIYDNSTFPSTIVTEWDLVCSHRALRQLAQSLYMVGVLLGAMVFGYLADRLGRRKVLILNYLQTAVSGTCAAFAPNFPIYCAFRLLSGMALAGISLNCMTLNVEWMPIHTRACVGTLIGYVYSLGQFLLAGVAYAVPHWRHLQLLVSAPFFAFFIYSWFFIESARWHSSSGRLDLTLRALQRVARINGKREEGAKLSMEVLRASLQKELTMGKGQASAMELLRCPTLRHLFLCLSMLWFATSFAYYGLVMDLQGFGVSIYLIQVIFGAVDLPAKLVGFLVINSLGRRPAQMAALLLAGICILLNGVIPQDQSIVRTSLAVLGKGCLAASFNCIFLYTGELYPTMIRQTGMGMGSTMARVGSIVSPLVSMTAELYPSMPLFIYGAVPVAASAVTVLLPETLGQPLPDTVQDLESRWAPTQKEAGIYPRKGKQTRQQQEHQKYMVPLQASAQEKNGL
Protocol: as §2, §1

OAT4 = molecular target: T4, OAT4 (Homo sapiens, UniProt Q9NSA0); experiment: Polyphenol inhibition of OAT4-mediated OTA uptake in HEK293 cells; set-up: host or cells: HEK293, stably transfected; conditions: polyphenol 10 μM, 300 nM OTA, 5 min
T4 sequence (Q9NSA0 1-550): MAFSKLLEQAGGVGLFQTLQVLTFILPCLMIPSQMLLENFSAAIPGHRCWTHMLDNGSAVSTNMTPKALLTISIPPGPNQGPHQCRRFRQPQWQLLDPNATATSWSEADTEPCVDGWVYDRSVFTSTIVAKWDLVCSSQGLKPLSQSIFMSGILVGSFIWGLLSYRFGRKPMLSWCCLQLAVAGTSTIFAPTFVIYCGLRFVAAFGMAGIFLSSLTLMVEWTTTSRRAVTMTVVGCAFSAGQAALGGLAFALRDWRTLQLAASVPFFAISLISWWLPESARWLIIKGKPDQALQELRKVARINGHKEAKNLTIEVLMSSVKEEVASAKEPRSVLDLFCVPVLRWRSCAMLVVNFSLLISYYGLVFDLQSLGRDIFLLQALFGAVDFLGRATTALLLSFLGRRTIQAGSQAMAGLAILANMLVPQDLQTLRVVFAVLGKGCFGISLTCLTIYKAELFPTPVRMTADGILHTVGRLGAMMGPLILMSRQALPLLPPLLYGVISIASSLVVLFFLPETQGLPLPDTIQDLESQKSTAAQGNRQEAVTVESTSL
Protocol: as §2, §1

Molecule | IC50 (human BCRP; read-out: IC50, inhibition of BCRP-mediated OTA transport, 300 nM OTA, efflux ratio as % of vehicle control) | OTA uptake, fraction of vehicle control (OAT3) | OTA uptake, fraction of vehicle control (human OAT1) | OTA uptake, fraction of vehicle control (OAT4) | EC50 (human BCRP) | maximal stimulation of BCRP-mediated OTA efflux (human BCRP; 300 nM OTA) | IC50 (human BCRP) | decrease of OAT3-mediated OTA uptake (OAT3; 10 µM) | decrease of OAT1-mediated OTA uptake (human OAT1; 10 µM) | effect on BCRP-mediated OTA transport (human BCRP; 300 nM OTA, 100 to 1000 μM)
O=C(O[C@@H]1Cc2c(O)cc(O)cc2O[C@@H]1c1ccc(O)c(O)c1)c1cc(O)c(O)c(O)c1 [ECG, (-)-Epicatechin-3-O-gallate] | 495 µM | did not significantly inhibit | did not significantly inhibit | did not significantly inhibit | – | – | – | – | – | –
O=C(O)/C=C/c1ccc(O)c(O)c1 [caffeic acid] | – | did not significantly inhibit | did not significantly inhibit | did not significantly inhibit | 714 µM | around 2 fold of control | – | – | – | –
O=c1cc(-c2ccc(O)c(O)c2)oc2cc(O)cc(O)c12 [luteolin] | – | 0.36 fold of vehicle control | 0.28 fold of vehicle control | 0.7 fold of vehicle control | – | – | 22 µM | 64% | 72% | –
O=c1c(O)c(-c2cc(O)c(O)c(O)c2)oc2cc(O)cc(O)c12 [myricetin] | – | 0.74 fold of vehicle control | 0.73 fold of vehicle control | 0.82 fold of vehicle control | – | – | 425 µM | – | – | –
quercetin 3-O glucuronide [Miquelianin] | – | 0.58 fold of vehicle control | no significant effects | no significant effects | – | – | – | – | – | no appreciable inhibition or activation
